Results from patent publication US20230265068A1, “TRANSIENT RECEPTOR POTENTIAL CANONICAL 3 INHIBITORS AND METHODS OF USE THEREOF” (University of Tennessee Research Foundation, priority 2020, published 2023).
Read-outs that look alike come from different tables or passages of the source.

Tests used:
TRPC3 = target: T1, TRPC3 (Homo sapiens, UniProt Q13507); experiment: whole-cell patch clamp of HEK293 cells transfected with hTRPC3, currents activated by GSK1702934A; type: cell-based; set-up: expressed in transfected cells; host or cells: HEK293 (CRL-1573), transient transfection, pMO vector
T1 sequence (Q13507 1-921): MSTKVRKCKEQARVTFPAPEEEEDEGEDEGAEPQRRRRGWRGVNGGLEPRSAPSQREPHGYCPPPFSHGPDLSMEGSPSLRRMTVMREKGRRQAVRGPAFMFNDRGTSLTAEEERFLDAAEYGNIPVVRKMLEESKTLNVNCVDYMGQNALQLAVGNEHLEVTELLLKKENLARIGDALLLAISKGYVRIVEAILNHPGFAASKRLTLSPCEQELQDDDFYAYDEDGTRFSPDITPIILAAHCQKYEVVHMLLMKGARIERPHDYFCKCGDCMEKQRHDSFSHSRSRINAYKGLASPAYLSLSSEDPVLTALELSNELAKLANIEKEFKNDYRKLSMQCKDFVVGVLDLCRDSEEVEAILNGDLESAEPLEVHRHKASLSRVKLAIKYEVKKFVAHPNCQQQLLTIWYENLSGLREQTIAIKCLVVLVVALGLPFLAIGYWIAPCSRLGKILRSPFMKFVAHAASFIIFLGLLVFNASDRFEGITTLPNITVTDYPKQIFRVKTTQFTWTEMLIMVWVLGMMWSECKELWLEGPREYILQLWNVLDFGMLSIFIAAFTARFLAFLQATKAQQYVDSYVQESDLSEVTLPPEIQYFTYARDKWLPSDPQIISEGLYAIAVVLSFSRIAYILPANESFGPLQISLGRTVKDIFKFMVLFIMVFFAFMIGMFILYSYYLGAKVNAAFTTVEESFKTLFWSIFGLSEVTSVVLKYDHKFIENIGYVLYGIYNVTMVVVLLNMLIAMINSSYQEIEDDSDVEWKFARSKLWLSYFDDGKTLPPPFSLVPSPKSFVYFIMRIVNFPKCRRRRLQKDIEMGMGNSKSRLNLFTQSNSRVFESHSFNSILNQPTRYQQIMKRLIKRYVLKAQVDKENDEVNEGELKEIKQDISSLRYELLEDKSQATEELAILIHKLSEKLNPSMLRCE
Method in brief: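 Whole-cell patch clamp on HEK293 cells co-transfected with hTRPC3 and GFP, recorded 18-24 h post-transfection. Bath held 140 mM NaCl, pH 7.4; pipette held 140 mM CsCl/5 mM EGTA, pH 7.2. Currents came from 1-s ramps −100 to 100 mV with GSK1702934A; compounds screened at 10 μM, IC50 from single-cell dose points.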

[1] = maximum tolerated dose / in vivo toxicity study in mice; conditions: 200 mg/kg/day IP for five consecutive days
Procedure: The in vivo study was performed in compliance with the NIH Animal Use Guidelines and protocol approved by the Institutional Animal Care and Use Committee (IACUC) at the University of Tennessee Health Science Center (UTHSC, Memphis, Tenn.). NSG mice at 8 weeks (n=2) and ICR mice at 12 weeks (n=3) were housed with a 12:12-hour light-dark cycle and fed a breeder chow diet. Daily IP injections of 200 mg/kg of compounds 22 or 79 were administered for five consecutive injections in five mice, respectively, which were followed to monitor the mortality rate. Body weights of the mice were recorded daily.
The metabolic stability of compound 22 was tested prior to the next phase of in vivo study. […] The maximum tolerated dose (MTD) study was subsequently performed to investigate its in vivo toxicity (FIGS. 4A and 4B). The second major limitation of Pyr3 is its toxicity due to its alkylating tail moiety. While replacing only the fast-metabolizing head ester group in Pyr3 with a stable amide (compound 79) improved metabolic stability, a single IP injection of compound 79 at 200 mg/kg killed all mice within 24 h.
Compound 79 is a metabolically stable version of Pyr3. Mice treated daily with compound 22 or compound 79 (n=5) for 5 consecutive days. All the mice were treated with either compound 22 or 79 at 200 mg/kg (IP). […]

Compound: CCNC(=O)c1cnn(-c2ccc(-n3ccc(Cl)c(Cl)c3=O)cc2)c1C(F)(F)F [Compound 22]
- inhibition at 10 µM (TRPC3; 10 μM compound in presence of agonist GSK1702934A, HEK293 whole-cell peak current, read-out: hTRPC3 % Inhibition at 10 μM (mean ± SEM)): 89 ± 1.14%
- IC50 (TRPC3; agonist GSK1702934A, HEK293 whole-cell patch clamp, read-out: hTRPC3 IC50 (μM, mean ± SEM)): 0.37 ± 0.03 µM
- IC50 (TRPC3; same value expressed in ng/ml, read-out: TRPC3 IC50 displayed in FIG. 6 (converted)): 0.51 µM
- IC50 (TRPC3; value shown in brain concentration figure, read-out: TRPC3 IC50 displayed in FIG. 6 (converted)): 0.51 µM
- acute toxicities / body weight loss [1]: no acute toxicities or body weight loss
